Test results as given in patent US8609858B2, “Spiro derivatives of parthenin as novel anticancer agents” (Council of Scientific & Industrial Research, priority 2008, dated 2013).

Key:
[1] = test system: Ehrlich Ascites Tumor (EAT); assay: Anti tumor activity on solid Ehrlich Ascites Tumor (EAT) bearing mice; type: in vivo; conditions: for % Tumor growth inhibition / Tumor Weight (mg) Mean ± SE: nine days, day 13
Source text: Non-inbred swiss albino mice from an in-house colony were used in the present study. The breeding and experimental animals were housed in standard size polycarbonate cages providing internationally recommended space for each animal. Animals were fed balanced mice feed supplied by MIs Ashirwad Industries, Chandigarh (India) and autoclaved water was available ad libitum. Animals were cared as per the guide for the care and use of laboratory animals (1996), ILAR, Washington D.C. They were housed in controlled conditions of temperature (23±2° C.), humidity (50-60%) and 12:12 hrs of light: dark cycle. The study and the number of animals used were approved by the institutional animal ethics committee, IIIM, Jammu, India. The study was conducted as per the protocols of National Cancer Institute (NCl), USA (Geran et al., 1972).
Parthenin and its derivative Compound-17 were evaluated against solid Ehrlich Ascites Tumor (EAT) models at different doses. A standard procedure for experiment was as followed:
Animals of the same sex weighing 20±3 g were injected 1×10^7 cells collected from the peritoneal cavity of non-inbred swiss mice, bearing 8-10 days old tumor cells, into the right thigh, intramuscularly (on Day 1). On next day animals were randomized and divided into test groups (7 animals in each test group) and one tumor control group (10 animals). Test groups were treated with different doses of Parthenin (10 mg/kg, 25 mg/kg and 50 mg/kg) and its derivative Compound-17 (10 mg/kg, 25 mg/kg and 50 mg/kg, 100 mg/kg and 200 mg/kg) suspension in 1% gum acacia in, their respective group intraperitonealy for nine consecutive days. Another test group was administered 5-FU @ 22 mg/kg i.p and served as positive control. The tumor contra group was similarly administered normal saline (0.2 ml i.p). The percent tumor growth-inhibition was measured on day 13 with respect to their tumor weight (Geran et al., 1972): Shortest and longest diameters of the tumor mass were measured with the help of vernier caliper and tumor weight (mg) was calculated by using following formula Tumor weight (mg)=Length (mm)×(Width (mm)^2/2 The average tumor weight for each group was calculated and the percent tumor growth inhibition in treated groups was calculated as follows: % Tumor Growth Inhibition=100×(Average tumor weight of control group−Average tumor weight of test group)/Average tumor weight of control group Anti Tumor Activity of Parthenin and its Derivative Compound-17 on Ehrlich Ascites Carcinoma (EAC)

PC-3 = assay: In vitro cytotoxicity screening (sulphodamine B dye), PC-3; type: cell-based; conditions: Homo sapiens; PC-3 prostate cancer cell line
[2] = test system: acute lymphoblastic leukemia Cells (MOLT-4); assay: DNA fragmentation by DNA gel electrophoresis; type: cell-based, human; conditions: 10, 50 & 100 μM, 24 hrs
Experimental: DNA fragmentation was determined by electrophoresis of extracted genomic DNA from acute lymphoblastic leukemia Cells (MOLT-4). Briefly, exponentially growing cells (3×10^6 cells/ml) in 6 well plates were treated with “Compound-17” (1, 10, 50 and 100 μM) for 24 hrs. Cells were harvested, washed with PBS, pellets were dissolved in lysis buffer (10 mM EDTA, 50 mM Tris Buffer, pH 8.0, 0.5% w/v SDS and proteinase K 0.5 mg/ml) and incubated at 50° C. for 1 hr. lysate was further incubated with RNase A (0.5 mg/ml) at 50° C. for 1 hr. Finally, the DNA obtained was heated rapidly to 70° C., supplemented with loading dye and immediately resolved on to 1.5% agarose gel at 50 V for 2-3 hrs (FIG. 2).

C[C@H]1CC[C@@H]2[C@@H](OC(=O)C23CC(c2c4ccccc4cc4ccccc24)=NO3)[C@]2(C)C(=O)C=C[C@@]12O (some centres unmarked) [Compound -17]
% Tumor growth inhibition ([1]; 10 mg/kg i.p.): 9.44%
Tumor Weight (mg) Mean ± SE ([1]; 10 mg/kg i.p.): 1547.14 ± 36.63 mg
% Tumor growth inhibition ([1]; 25 mg/kg i.p.): 15.38%
Tumor Weight (mg) Mean ± SE ([1]; 25 mg/kg i.p.): 1445.71 ± 41.52 mg
% Tumor growth inhibition ([1]; 50 mg/kg i.p.): 22.03%
Tumor Weight (mg) Mean ± SE ([1]; 50 mg/kg i.p.): 1332.14 ± 32.59 mg
% Tumor growth inhibition ([1]; 100 mg/kg i.p.): 35.11%
Tumor Weight (mg) Mean ± SE ([1]; 100 mg/kg i.p.): 1108.57 ± 38.02 mg
mortality of test animals ([1]; 200 mg/kg i.p., EAT bearing mice): All animals died by 3rd day
IC50 (PC-3): 4.9 µM
DNA ladder (DNA fragmentation) [2]: DNA ladder was observed
